In ChEMBL document CHEMBL4251550, “Applications of parallel synthetic lead hopping and pharmacophore-based virtual screening in the discovery of efficient glycine receptor potentiators” (Eur J Med Chem, 2017):
≈ marks a conversion by molar mass, not a printed value.

Assays:
[1] = Solubility of compound in FaSSIF; format: physicochemical
[2] = Apparent permeability in MDCK cells; format: ADME, cell-based, Canis lupus familiaris; settings: dog
[3] = Volume of distribution at steady state in CD1 mouse at 1 mg/kg, iv; format: ADME, organism-based; settings: in vivo, read-out: Vdss

| solubility [1] [µM] | Papp [2] [×10⁻⁶ cm/s] | Vd [3] [L/kg] | SMILES |
| --- | --- | --- | --- |
| 17 (≈ 5.94 µg/mL) | 28 |  | O=S(=O)(c1ccc2c(c1)OCO2)N1CC[C@@H](c2ccccc2F)C1 |
| < 1 | 44 |  | CN1C(=O)[C@@H]2CN(S(=O)(=O)c3ccc4c(c3)OCO4)C[C@@H]2c2ccccc21 |
| 102 (≈ 37.1 µg/mL) | 44 |  | COc1ccccc1OC1CN(S(=O)(=O)c2ccc3c(c2)OCO3)C1 |
| 96 (≈ 39.4 µg/mL) | 39 | 1.4 | COc1ccc(Cl)cc1OC1CN(S(=O)(=O)c2ccc3[nH]c(=O)oc3c2)C1 |
